The source of these data is patent US20240197700A1, “Methods and Compositions for Treating Lysosomal Storage Disorders” (Sanford Health, priority 2021, published 2024).

Entries after “also recorded” stand apart in the source; their conditions may differ.

In this experiment the test system is Cln3^Δex7/8 mice. As to the kind of experiment: Autofluorescent storage material (ASM) in brain of Cln3^Δex7/8 mice. The settings on record: 16 weeks; for auto florescent storage material: LM11A-31 0.6 mg/mL in drinking water. The class given is in vivo, mouse. How it is done:
FIG. 16. Effects of treatment with LM11A-31 on auto florescent storage material. […] Upon sacrifice, one hemisphere of brain was sectioned at 50 microns on a vibratome; DAB staining immunohistochemistry was then performed using anti-GFAP (Dako, Z0334; 1:5000), anti-CD68 (AbD Serotec, MCA1957; 1:2000), anti-rabbit biotinylated (Vector Labs. BA-1000 1:1000), and anti-rat (Vector Labs, BA-9400 1:1000). Sections were imaged and analyzed using an Aperio Digital Pathology Slide Scanner (AT2) and associated software. The flash-frozen brain was sectioned into 16 μm slices and placed on slides. Slides were post-fixed for 20 minutes in chilled 10% neutral buffered formalin (NBF) and underwent serial ethanol dehydration. To quantify accumulation of autofluorescent storage material, DAPI was applied to slides and coverslipped with aqueous mounting media (Dako Faramount, Agilent, S302580-2). Sections were imaged using a Nikon NiE microscope and associated software. […] Nested one-way ANOVA. Mean±S.E.M. Sidak's multiple comparisons test. Compared to the wild type vehicle treated group. #p<0.05, ##p<0.01, ###p<0.001, ####p<0.0001. Compared to mutant vehicle treated group. *p<0.05, **p<0.01, ***p<0.001, ****p<0.0001. Scale bar=100 μm.
Since LM11A-31 reduced lysosomal pathology and increased lysosomal function in cell models of diverse lysosomal storage disorders, we asked whether treatment with LM11A-31 could reduce histopathological markers of disease severity in animal models of CLN3-Batten disease. […] Sections were imaged and analyzed using an Aperio Digital Pathology Slide Scanner (AT2) and associated software. […] To quantify accumulation of autofluorescent storage material, DAPI was applied to slides and coverslipped with aqueous mounting media (Dako Faramount, Agilent, S302580-2). […]
Specific experimental details are included in figure legends. […] Body weight was measured at 4, 6, 8, 12, and 16 weeks of age. […]

For the compound `CC[C@H](C)[C@H](N)C(=O)NCCN1CCOCC1` [LM11A-31, N-[2-(morpholin-4-yl)ethyl]-L-isoleucinamide], the “auto florescent storage material” value (S1BF, CA3, or motor cortex) is on record as “did not decrease”; the “auto florescent storage material” value (VPM/VPL and visual cortex) is “reduced ASM to levels that were not statistically distinguishable from wild type; also recorded: slight decrease”. For semaglutide, under “semaglutide 2.571 μg/mouse, 25.71 μg/mouse s.c. three times a week, S1BF, CA3, VPM/VPL”, the “accumulation of autofluorescent storage material (ASM)” value is recorded as “had no significant effect”.
